Some test systems named below: NCI/ADR-RES; SK-OV-3; CCRF-CEM; HT-29; COLO 205; PC-3; M14; SR; SK-MEL-28; NCI-H460; MCF7; SNB-19; ACHN; NCI-H226; HCC 2998; 786-0; HOP-92; HCT-116; DU-145; SN12C.
Common to all, as to experiment: growth of human tumour cells (NCI), 48 h

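48-hour exposure; five concentrations; linearly interpolated endpoints. Abbreviation: GI50, concentration required for 50% inhibition of growth.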 Activity calls are given as the source filed them. No stated cut-off is given here; in the data, active = GI50 up to about 1.1 µM and inactive = higher. Where only a bound is given, the exact number is not on record here.

Take `O=C(/N=C1/OC(CN2CCOCC2)CN1C(=O)Nc1ccccc1)Nc1ccccc1` (stereo not given): the GI50 in the test on NCI/ADR-RES, with SK-OV-3, in the test on CCRF-CEM, in the test on HT-29, in the test on COLO 205 and with PC-3 was > 100 µM (inactive) each time. In addition, the GI50 with M14, in the test on SR, in the test on SK-MEL-28, with NCI-H460, with MCF7 and in the test on SNB-19 was > 100 µM (inactive) in each case. The GI50 is > 100 µM (inactive) with ACHN; > 100 µM (inactive) with NCI-H226; > 100 µM (inactive) in the test with HCC 2998; > 100 µM (inactive) in the test with 786-0; 94.6 µM (inactive) with HOP-92; > 100 µM (inactive) in the test with HCT-116. Moreover, the GI50 in the test on DU-145 and in the test on SN12C was > 100 µM (inactive) throughout.
Turning to `O=C1c2c(O)cc(O)cc2C(C2OC(CO)C(O)C(O)C2O)c2cc(CO)cc(O)c21` (stereo not given), the GI50 in the test on NCI/ADR-RES was > 100 µM (inactive); with SK-OV-3, > 100 µM (inactive); with CCRF-CEM it was > 10 µM (inactive); in the test on HT-29, > 100 µM (inactive); with COLO 205, > 100 µM (inactive); with PC-3, > 100 µM (inactive). Moreover, the GI50 in the test with M14, with SR, in the test on SK-MEL-28, in the test on NCI-H460, in the test with MCF7 and with SNB-19 was > 100 µM (inactive) in each case. In addition, the GI50 with ACHN, with NCI-H226, in the test with HCC 2998, in the test on 786-0, with HOP-92 and with HCT-116 was > 100 µM (inactive) in each case. Also, the GI50 with DU-145 and in the test on SN12C was > 100 µM (inactive) throughout.
As for `CC(C)CNP(=O)(NCC(C)C)Oc1ccc(CC(NC(=O)OCc2ccccc2)C(=O)OCc2ccccc2)cc1` (stereo not given), the GI50 in the test with NCI/ADR-RES is 28.8 µM (inactive); in the test on SK-OV-3, 15.2 µM (inactive); with CCRF-CEM, 4.99 µM (inactive); in the test on HT-29, 17.2 µM (inactive); in the test on COLO 205, 19.2 µM (inactive); with PC-3, 17.1 µM (inactive). Moreover, the GI50 in the test with M14 was 24.3 µM (inactive); in the test with SR, 6.17 µM (inactive); in the test on SK-MEL-28, 15.4 µM (inactive); with NCI-H460, 18.1 µM (inactive); in the test with MCF7, 11.1 µM (inactive); with SNB-19, 25.2 µM (inactive). Also, the GI50 is 16.9 µM (inactive) with ACHN; 56.1 µM (inactive) in the test with NCI-H226; 16.8 µM (inactive) in the test with HCC 2998; 13.6 µM (inactive) in the test on 786-0; 61.4 µM (inactive) in the test with HOP-92; 18.7 µM (inactive) in the test on HCT-116. Moreover, the GI50 with DU-145 is 9.46 µM (inactive); in the test on SN12C it was 18.8 µM (inactive).
With `COC1C(OC(=O)/C=C/C=C/C=C/C=C/C(=O)O)CCC2(CO2)C1C1(C)OC1CC=C(C)C` (stereo not given), the GI50 is > 63.8 µM (inactive) in the test on NCI/ADR-RES; > 59.6 µM (inactive) in the test on SK-OV-3; 21.4 µM (inactive) in the test with CCRF-CEM; 21.1 µM (inactive) in the test with HT-29; 12.4 µM (inactive) with COLO 205; 15.2 µM (inactive) in the test with PC-3. Moreover, the GI50 with M14 is 13.6 µM (inactive); with SR, 20.6 µM (inactive); with SK-MEL-28, 18.2 µM (inactive); in the test with NCI-H460 it was 0.112 µM (active); with MCF7, 25.1 µM (inactive); with SNB-19, > 56.1 µM (inactive). The GI50 in the test on ACHN was 18.5 µM (inactive); with NCI-H226 it was 42.8 µM (inactive); in the test on HCC 2998 it was 26 µM (inactive); with 786-0, 20.5 µM (inactive); in the test on HOP-92 it was 27.4 µM (inactive); with HCT-116, 12.6 µM (inactive). Moreover, the GI50 in the test with DU-145 is 35.2 µM (inactive); in the test with SN12C, 28.1 µM (inactive).
Take `COc1ccc(C(=O)Nc2ccc3oc(-c4ccccc4)nc3c2)cc1`: the GI50 in the test with NCI/ADR-RES is 70.1 µM (inactive); in the test on SK-OV-3, 56.4 µM (inactive); in the test with CCRF-CEM, > 100 µM (inactive); in the test with HT-29, > 100 µM (inactive); in the test with COLO 205, > 100 µM (inactive); with PC-3, > 100 µM (inactive). Besides, the GI50 was > 100 µM (inactive) with M14; > 100 µM (inactive) in the test with SR; > 100 µM (inactive) in the test with SK-MEL-28; > 100 µM (inactive) with NCI-H460; > 100 µM (inactive) with MCF7; 50.5 µM (inactive) in the test with SNB-19. Further, the GI50 in the test with ACHN was > 100 µM (inactive); in the test on NCI-H226, > 100 µM (inactive); with HCC 2998 it was > 100 µM (inactive); with 786-0 it was 92.7 µM (inactive); in the test with HOP-92, > 100 µM (inactive); with HCT-116, > 100 µM (inactive). For the same compound, the GI50 with DU-145 and with SN12C was > 100 µM (inactive) in each case.
On to `Cn1c2ccccc2c2c3c(c4c5ccccc5n(C)c4c21)C(=O)N(c1ccccc1)C3=O`, for which the GI50 in the test with NCI/ADR-RES, with SK-OV-3, with CCRF-CEM, in the test on HT-29, in the test on COLO 205 and in the test with PC-3 was > 100 µM (inactive) each time. Also, the GI50 with M14, with SR, with SK-MEL-28, in the test on NCI-H460, with MCF7 and in the test with SNB-19 was > 100 µM (inactive) each time. Besides, the GI50 in the test with ACHN, in the test on NCI-H226, with HCC 2998, in the test on 786-0, in the test on HOP-92 and in the test on HCT-116 was > 100 µM (inactive) throughout. Also, the GI50 in the test with DU-145 and in the test with SN12C was > 100 µM (inactive) in each case.
Take `CCOC(=O)CNC(=O)C(CSC(=O)N(O)c1ccc(Cl)cc1)NC(=O)CCC(N)C(=O)OCC` (stereo not given): the GI50 in the test on NCI/ADR-RES, in the test on SK-OV-3, in the test on CCRF-CEM, in the test on HT-29, in the test on COLO 205 and with PC-3 was > 50 µM (inactive) throughout. Also, the GI50 with M14 was 34.8 µM (inactive); in the test on SR, 43.5 µM (inactive); with SK-MEL-28, 24.8 µM (inactive); in the test with NCI-H460, > 50 µM (inactive); with MCF7, > 50 µM (inactive); with SNB-19, 9.53 µM (inactive). Besides, the GI50 with ACHN is > 50 µM (inactive); with NCI-H226 it was 1.32 µM (inactive); in the test with HCC 2998, 4.75 µM (inactive); in the test on 786-0 it was > 50 µM (inactive); in the test on HOP-92 it was 3.98 µM (inactive); in the test with HCT-116, > 50 µM (inactive). The GI50 in the test with DU-145 and with SN12C was > 50 µM (inactive) throughout.
`CCN1CN(c2ccccc2)C2(CCN(CC(CC3OCCO3)c3ccc(F)cc3)CC2)C1=O` (stereo not given): the GI50 in the test with NCI/ADR-RES was 10.5 µM (inactive); in the test with SK-OV-3 it was 39.8 µM (inactive); in the test on CCRF-CEM, 3.65 µM (inactive); in the test on HT-29, 1.34 µM (inactive); in the test on COLO 205, 0.703 µM (active); in the test on PC-3, 22.6 µM (inactive). Besides, the GI50 in the test on M14 is 5.24 µM (inactive); with SR it was 33 µM (inactive); in the test with SK-MEL-28, 19.9 µM (inactive); in the test on NCI-H460 it was 14.7 µM (inactive); with MCF7, 2.26 µM (inactive); with SNB-19, 20.6 µM (inactive). Moreover, the GI50 was 3.73 µM (inactive) in the test with ACHN; 13.5 µM (inactive) in the test on NCI-H226; 9.93 µM (inactive) with HCC 2998; 8.36 µM (inactive) in the test with 786-0; 2.13 µM (inactive) in the test on HOP-92; 3.36 µM (inactive) in the test with HCT-116. Also, the values for the GI50 in the test with DU-145 and with SN12C were 4.2 µM (inactive) and 14.3 µM (inactive), respectively.
Turning to `Cc1n[nH]/c(=N\S(=O)(=O)c2ccc(/N=N/c3c(O)c(C(=O)O)cc4ccccc34)cc2)s1`, the GI50 with NCI/ADR-RES, in the test on SK-OV-3, in the test with CCRF-CEM, in the test on HT-29, in the test with COLO 205 and in the test on PC-3 was > 100 µM (inactive) each time. Besides, the GI50 in the test with M14, in the test with SR, with SK-MEL-28, in the test on NCI-H460, with MCF7 and in the test on SNB-19 was > 100 µM (inactive) each time. For the same compound, the GI50 in the test on ACHN, in the test on NCI-H226, in the test with HCC 2998, in the test on 786-0, in the test on HOP-92 and in the test on HCT-116 was > 100 µM (inactive) throughout. Further, the GI50 with DU-145 and in the test on SN12C was > 100 µM (inactive) throughout.
As for `COC1=CC(=O)N(C)C(O)C1(C#N)OC1OC(CO)C(O)C(O)C1O` (stereo not given), the GI50 was > 100 µM (inactive) in the test with NCI/ADR-RES; > 100 µM (inactive) in the test with SK-OV-3; > 10 µM (inactive) in the test on CCRF-CEM; > 10 µM (inactive) in the test with HT-29; > 100 µM (inactive) in the test with COLO 205; > 100 µM (inactive) in the test with PC-3. Also, the GI50 with M14, in the test with SR, in the test on SK-MEL-28, in the test with NCI-H460, in the test on MCF7 and in the test on SNB-19 was > 100 µM (inactive) in each case. Also, the GI50 with ACHN, with NCI-H226, with HCC 2998, with 786-0, with HOP-92 and in the test on HCT-116 was > 100 µM (inactive) each time. For the same compound, the GI50 with DU-145 and in the test on SN12C was > 100 µM (inactive) in each case.
